From patent US20110262556A1, “SILVER/WATER, SILVER GELS AND SILVER-BASED COMPOSITIONS; AND METHODS FOR MAKING AND USING THE SAME” (AMERICAN SILVER, LLC, priority 2005, published 2011)
≈ marks a conversion by molar mass, not a printed value. Where “and” joins values, the source holds several entries; their conditions need not be identical. Equal entries are not always repeated. Where two headings read alike, the source gives them in different places.

How the values were obtained:
[1] = molecular target: T1, Hepatitis B virus DNA polymerase (Hepatitis B virus genotype D subtype ayw, UniProt P03156); assay: DNA polymerase inhibition; type: biochemical; conditions: read-out: % Inhibition (DNA polymerase)
T1 construct: from tissue; host or cells: Hepatitis B virus isolated from human subjects, lysed
T1 sequence (P03156 whole entry): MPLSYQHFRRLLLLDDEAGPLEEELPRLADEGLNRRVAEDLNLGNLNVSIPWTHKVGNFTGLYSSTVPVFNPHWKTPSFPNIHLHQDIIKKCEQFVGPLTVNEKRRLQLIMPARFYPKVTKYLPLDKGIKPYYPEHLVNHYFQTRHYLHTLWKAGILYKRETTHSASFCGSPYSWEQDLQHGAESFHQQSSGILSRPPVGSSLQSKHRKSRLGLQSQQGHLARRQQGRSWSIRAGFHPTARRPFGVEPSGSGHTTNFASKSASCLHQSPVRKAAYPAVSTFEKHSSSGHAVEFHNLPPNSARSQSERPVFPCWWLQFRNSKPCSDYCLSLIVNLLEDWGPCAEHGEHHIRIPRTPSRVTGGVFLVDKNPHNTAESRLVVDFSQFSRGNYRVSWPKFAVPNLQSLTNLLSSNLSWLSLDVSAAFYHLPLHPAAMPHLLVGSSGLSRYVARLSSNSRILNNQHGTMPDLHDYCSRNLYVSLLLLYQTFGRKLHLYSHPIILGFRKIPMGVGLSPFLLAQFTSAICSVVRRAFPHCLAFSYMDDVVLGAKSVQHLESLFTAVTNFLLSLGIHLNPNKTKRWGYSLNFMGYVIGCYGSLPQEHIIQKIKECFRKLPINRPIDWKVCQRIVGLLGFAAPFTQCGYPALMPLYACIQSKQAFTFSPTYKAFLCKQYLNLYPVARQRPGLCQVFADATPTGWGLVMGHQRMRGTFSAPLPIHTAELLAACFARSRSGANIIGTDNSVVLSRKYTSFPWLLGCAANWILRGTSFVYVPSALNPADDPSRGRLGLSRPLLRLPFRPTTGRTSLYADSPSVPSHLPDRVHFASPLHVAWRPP
Protocol: Overall approach. Hepatitis B viral extracts from human subjects are incubated with radiolabelled nucleotides and an active inhibitor. Percent inhibition is calculated based on the amount of de novo viral nucleic acid synthesized with respect to lamivudine as a positive control and phosphate buffer saline (PBS) as a negative control.
Specific procedure. Isolated Hepatitis B virus was lysed to extract free polymerase enzyme, which is free from contaminating enzymes. A virus extract (25 ml) was added to a reaction mixture comprising dATP, dGTP, dCTP and [^3H]dTTP nucleotides (25 ml). Active inhibitor (3 ml) was added to the mixture comprising virus extract and nucleotides. The resultant mixture was incubated at 37° C. for 24 hours.
A separate negative control experiment was performed in which phosphate buffer saline (PBS, 3 ml) was used instead of the inhibitor (3 ml).
A separate positive control experiment was performed in which a known DNA polymerase inhibitor (3 ml of lamivudine at a concentration 3 mg/ml) was used instead of the tested inhibitor (3 ml).
The reaction was stopped by adding 25 ml EDTA and 25 ml TCA (trichloroacetic acid). The reaction mixture was then spotted on ionic paper (DEAE paper). The paper was washed three times with TCA and then with ethyl alcohol. […] Radioactivity was measured by a liquid scintillation counter (Blue Star). […]

[2] = system: S. pyogenes; assay: MIC/MBC broth microdilution; type: cell-based, Streptococcus pyogenes; conditions: Streptococcus pyogenes
[3] = system: S. mutans; assay: MIC/MBC broth microdilution; type: cell-based, Streptococcus mutans; conditions: Streptococcus mutans
[4] = system: S gordonii; assay: MIC/MBC broth microdilution; type: cell-based, Streptococcus gordonii; conditions: Streptococcus gordonii
[5] = system: S. pneumoniae; assay: MIC/MBC broth microdilution; type: cell-based; conditions: Streptococcus pneumoniae
[6] = system: S. faecalis; assay: MIC/MBC broth microdilution; type: cell-based, Streptococcus faecalis; conditions: Enterococcus faecalis
[7] = system: S. aureus; assay: MIC/MBC broth microdilution; type: cell-based, Staphylococcus aureus; conditions: Staphylococcus aureus
[8] = system: P. aeruginosa; assay: MIC/MBC broth microdilution; type: cell-based, Pseudomonas aeruginosa; conditions: Pseudomonas aeruginosa
[9] = system: E. coli; assay: MIC/MBC broth microdilution; type: cell-based, Escherichia coli; conditions: Escherichia coli
[10] = system: E. aerogenes; assay: MIC/MBC broth microdilution; type: cell-based, Enterobacter aerogenes; conditions: Klebsiella aerogenes; E. aerogenes; read-out: MIC
[11] = system: E. cloacae; assay: MIC/MBC broth microdilution; type: cell-based; conditions: Enterobacter cloacae
[12] = system: S. typhimurium; assay: MIC/MBC broth microdilution; type: cell-based; conditions: Salmonella enterica, TYPHIMURIUM
[13] = system: S arizona; assay: MIC/MBC broth microdilution; type: cell-based, Salmonella arizona; conditions: Salmonella
[14] = system: S. boydii; assay: MIC/MBC broth microdilution; type: cell-based, Shigella boydii; conditions: Shigella boydii
[15] = system: K. pneumoniae; assay: MIC/MBC broth microdilution; type: cell-based, Klebsiella pneumoniae; conditions: Klebsiella pneumoniae
[16] = system: K. oxytoca; assay: MIC/MBC broth microdilution; type: cell-based; conditions: Klebsiella oxytoca
[17] = system: E. coil; assay: Zone of inhibition, agar well; conditions: E.coli; antibiotic amount (5-200 mcg)
[18] = system: Ps. Aeruginosa; assay: Zone of inhibition, agar well; conditions: antibiotic amount (5-200 mcg)
[19] = system: MRSA 2; assay: Zone of inhibition, agar well; conditions: antibiotic amount (1-200 mcg)
[20] = system: S. aureus ATCC 6538 P; assay: Zone of inhibition, agar well; conditions: antibiotic amount (1-200 mcg)
[21] = system: S.typhi; assay: Zone of inhibition, agar well; conditions: antibiotic amount (5-200 mcg)
[22] = system: MRSA clinical isolate (pus); assay: Antibiotic sensitivity, Kirby Bauer; conditions: Kirby-Bauer antibiotic disc
[23] = system: B. subtilis; assay: Zone of inhibition, agar well; conditions: antibiotic amount (1-200 mcg)
[24] = system: K. pneumoniae; assay: Zone of inhibition, agar well; conditions: antibiotic amount (5-200 mcg)
[25] = system: MRSA clinical isolate; assay: MIC, macrodilution broth
[26] = system: Escherichia coli MDR clinical isolate (stool); assay: Antibiotic sensitivity, Kirby Bauer; conditions: E.c; Kirby-Bauer antibiotic disc
[27] = system: Pseudomonas aeruginosa MDR clinical isolate (sputum); assay: Antibiotic sensitivity, Kirby Bauer
[28] = molecular target: Moloney murine leukemia virus reverse transcriptase (MoMuLV) (Moloney murine leukemia virus, UniProt P03355); assay: Reverse transcriptase inhibition; type: biochemical; conditions: 37° C., 24 hours; AZT control at 0.625 microgram/ml
Protocol: A commercial viral enzyme preparation of Moloney murine leukemia virus reverse transcriptase (MoMuLV) having Poly(A)dT (primer for RT) was used. […] of the MoMuLV preparation was combined with a mixture of dATP, dGTP, dCTP and [^3H]dTTP nucleotides.
This mixture was combined with 3 ml of the inhibitor to be tested, and the resultant mixture was incubated at 37° C. for 24 hours.
A negative control experiment was performed in which phosphate buffer saline (PBS, 3 ml) was used instead of the inhibitor.
A positive control experiment was performed in which a known reverse transcriptase inhibitor (3 ml of AZT at a concentration 0.625 microgram/ml) was used instead of the tested inhibitor.
The reaction was stopped by adding 25 ml EDTA and 25 ml TCA. The reaction mixture was then spotted on ionic paper (DEAE paper). The paper was washed three times with TCA and then with ethyl alcohol. The filter paper was air dried and put in a scintillation vial with a scintillation cocktail. Radioactivity was measured by a liquid scintillation counter (Blue Star).

[29] = system: Pseudomonas culture
Protocol: (§1) Phenol Resistance. Five-one ml aliquots of each dilution of the test phenol were placed into sterile test tubes and allowed to equilibrate in a 20±2° C. water bath. At 30 second intervals, 0.5 ml of each challenge culture was added to the appropriate dilutions of phenol, agitated, and replaced into the water bath: After the appropriate exposure times of 5, 10, and 15 minutes, a loopful of suspension was removed from the assay tubes and transferred to tubes of letheen broth (LETH). The tubes of LETH were incubated at 37±2° C. for 2 days.

[30] = system: Salmonella culture; conditions: 5, 10 or 15 min
Protocol: as §1

[31] = system: Staphylococcus culture
Protocol: as §1

[32] = system: Mycobacterium bovis BCG (TMC 1028); type: cell-based

Nc1ccn([C@@H]2CS[C@H](CO)O2)c(=O)n1 [lamivudine]
inhibition at 3000 µg/mL [1]: 31.3%

CN(C)[C@@H]1C(O)=C(C(N)=O)C(=O)[C@@]2(O)C(O)=C3C(=O)c4c(O)cccc4[C@@](C)(O)[C@H]3C[C@@H]12 [Tetracycline]
MBC ([2]; read-out: MBC): > 5 µg/mL
MIC ([2]; read-out: MIC): 0.625 µg/mL (≈ 1.41 µM)
MBC ([3]; read-out: MBC): > 5 µg/mL
MIC ([3]; read-out: MIC): 0.625 µg/mL (≈ 1.41 µM)
MBC ([4]; read-out: MBC): 0.625 µg/mL (≈ 1.41 µM)
MIC ([4]; read-out: MIC): 0.156 µg/mL (≈ 0.351 µM)
MBC ([5]; read-out: MBC): 0.625 µg/mL (≈ 1.41 µM)
MIC ([5]; read-out: MIC): 0.078 µg/mL (≈ 0.176 µM)
MBC ([6]; read-out: MBC): > 5 µg/mL
MIC ([6]; read-out: MIC): 0.313 µg/mL (≈ 0.704 µM)
MBC ([7]; read-out: MBC): > 5 µg/mL
MIC ([7]; read-out: MIC): 0.313 µg/mL (≈ 0.704 µM)
MBC ([8]; read-out: MBC): 5 µg/mL (≈ 11.3 µM)
MIC ([8]; read-out: MIC): 0.078 µg/mL (≈ 0.176 µM)
MBC ([9]; read-out: MBC): > 5 µg/mL
MIC ([9]; read-out: MIC): 1.67 µg/mL (≈ 3.76 µM)
MIC [10]: > 5 µg/mL
MBC [11]: > 5 µg/mL
MIC ([11]; read-out: MIC): 1.67 µg/mL (≈ 3.76 µM)
MBC [12]: > 5 µg/mL
MBC ([13]; read-out: MBC): > 5 µg/mL
MIC ([13]; read-out: MIC): 0.625 µg/mL (≈ 1.41 µM)
MBC [14]: > 5 µg/mL
MBC [15]: > 5 µg/mL
MIC ([15]; read-out: MIC): 2.5 µg/mL (≈ 5.63 µM)
MBC [16]: > 5 µg/mL
zone of inhibition, antibiotics [17]: 19 mm
zone of inhibition, antibiotics [18]: No inhibition
zone of inhibition, antibiotics [19]: 0.7 mm
zone of inhibition, antibiotics [20]: 34 mm
zone of inhibition, antibiotics [21]: 16 mm
Zone size (mm) [22]: 27 mm

Co-Trimoxazole
zone of inhibition, antibiotics [17]: 24 mm
zone of inhibition, antibiotics [18]: Clear
zone of inhibition, antibiotics [23]: 15 mm
zone of inhibition, antibiotics [20]: Clear
zone of inhibition, antibiotics [21]: 27 mm
zone of inhibition, antibiotics [24]: 19 mm

NCC[C@H](O)C(=O)N[C@@H]1C[C@H](N)[C@@H](O[C@H]2O[C@H](CN)[C@@H](O)[C@H](O)[C@H]2O)[C@H](O)[C@H]1O[C@H]1O[C@H](CO)[C@@H](O)[C@H](N)[C@H]1O [Amikacin]
Growth ([25]; Conc. 0.2 mcg/ml): +
Growth ([25]; Conc. 0.4 mcg/ml): +
Growth ([25]; Conc. 0.6 mcg/ml): +
Growth ([25]; Conc. 0.8 mcg/ml): −
Growth ([25]; Conc. 1 mcg/ml): −
Growth ([25]; Conc. 2 mcg/ml): −
Growth ([25]; Conc. 3 mcg/ml): −
Growth ([25]; Conc. 4 mcg/ml): −
Growth ([25]; Conc. 5 mcg/ml): −
MIC ([25]; Staphylococcus aureus, Nutrient Broth): 0.8 µg/mL (≈ 1.37 µM)
zone of inhibition, antibiotics [17]: Clear
zone of inhibition, antibiotics [21]: Clear
Zone size (mm) [26]: 20 mm
Zone size (mm) ([27]; Ps., Kirby-Bauer antibiotic disc): 9 mm
resistance of isolate ([27]; gram-negative isolate Pseudomonas): resistant
Zone size (mm) [22]: 22 mm

Gentamycin
zone of inhibition, antibiotics [17]: Clear
zone of inhibition, antibiotics [18]: No inhibition
zone of inhibition, antibiotics [23]: 18 mm
zone of inhibition, antibiotics [19]: 11 mm
zone of inhibition, antibiotics [20]: 1Clear
zone of inhibition, antibiotics [21]: Clear
zone of inhibition, antibiotics [24]: 17 mm
Zone size (mm) [26]: 19 mm

Cc1cn([C@H]2C[C@H](N=[N+]=[N-])[C@@H](CO)O2)c(=O)[nH]c1=O [AZT, zidovudine]
% Inhibition (reverse transcriptase) [28]: 31.33% and 18.06%

Oc1ccccc1 [phenol]
growth after phenol treatment ([29]; 1:80 phenol, 5 or 10 min): showed growth
growth after phenol treatment ([29]; 1:80 phenol, 15 min): no growth
growth after phenol treatment ([29]; 1:90 phenol, 5, 10 or 15 min): showed growth
growth after phenol treatment ([30]; 1:90 phenol): no growth
growth after phenol treatment ([30]; 1:100 phenol): showed growth
growth after phenol treatment ([31]; 1:60 phenol, 5 or 10 min): showed growth
growth after phenol treatment ([31]; 1:60 phenol, 15 min): no growth
growth after phenol treatment ([31]; 1:70 phenol, 5, 10 or 15 min): showed growth
log reduction [32]: ~1.81
